# Legend:
# [1] = system: ABUTH; test: Pre-emergence herbicidal activity on ABUTH (velvetleaf); format: in vivo, Abutilon theophrasti; details: greenhouse
# In short: (§1)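 Pre-emergence soil application; seeds covered with sterilized fertilized topsoil, compound in acetone/water (50:50) applied to surface. 30/21 °C greenhouse, overhead irrigation 0.64 cm then mist/subirrigation. Readout: % inhibition vs untreated at ~14 d; GR80 value, max rate typically 1000 g/ha.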
# [2] = system: SOLNI; test: Pre-emergence herbicidal activity on SOLNI (black nightshade); format: in vivo, Solanum nigrum; details: greenhouse
# In short: as §1
# [3] = system: AMARE; test: Pre-emergence herbicidal activity on AMARE (redroot pigweed); format: in vivo, Amaranthus retroflexus; details: greenhouse
# In short: as §1
# [4] = system: DATST; test: Pre-emergence herbicidal activity on DATST (jimsonweed); format: in vivo, Datura stramonium; details: greenhouse
# In short: as §1
# [5] = system: CHEAL; test: Pre-emergence herbicidal activity on CHEAL (common lambsquarters); format: in vivo, Chenopodium album; details: greenhouse
# In short: as §1
# [6] = system: CONAR; test: Pre-emergence herbicidal activity on CONAR (field bindweed); format: in vivo, Convolvulus arvensis; details: greenhouse
# In short: as §1
# [7] = system: POROL; test: Pre-emergence herbicidal activity on POROL (common purslane); format: in vivo, Portulaca oleracea; details: greenhouse
# In short: as §1
# [8] = system: CIRAR; test: Pre-emergence herbicidal activity on CIRAR (canada thistle, seedling); format: in vivo, Cirsium arvense; details: greenhouse
# In short: as §1
# [9] = system: ECHCG; test: Pre-emergence herbicidal activity on ECHCG (barnyardgrass); format: in vivo, Echinochloa crus-galli; details: lowest tested rate giving 80% or greater inhibition, approx. 14 days after planting and treating, greenhouse
# In short: as §1
# [10] = system: PANMI; test: Pre-emergence herbicidal activity on PANMI (wild proso millet); format: in vivo, Panicum miliaceum; details: greenhouse
# In short: as §1
# [11] = system: SORHA; test: Pre-emergence herbicidal activity on SORHA (johnsongrass, seedling); format: in vivo, Sorghum halepense; details: greenhouse
# In short: as §1
# [12] = system: SETFA; test: Pre-emergence herbicidal activity on SETFA (giant foxtail); format: in vivo, Setaria faberi; details: greenhouse
# In short: as §1
# [13] = system: PANDI; test: Pre-emergence herbicidal activity on PANDI (fall panicum); format: in vivo, Panicum dichotomiflorum; details: greenhouse
# In short: as §1
# [14] = system: SORVU; test: Pre-emergence herbicidal activity on SORVU (shattercane); format: in vivo, Sorghum vulgare; details: lowest tested rate giving 80% or greater inhibition, approx. 14 days after planting and treating, greenhouse
# In short: as §1
# [15] = system: BRAPP; test: Pre-emergence herbicidal activity on BRAPP (broadleaf signalgrass); format: in vivo, Brachiaria platyphylla; details: greenhouse
# In short: as §1
# [16] = system: DIGSA; test: Pre-emergence herbicidal activity on DIGSA (large crabgrass); format: in vivo, Digitaria sanguinalis; details: greenhouse
# In short: as §1
# [17] = system: monocotyledonous and dicotyledonous annual plant species; test: Greenhouse pre-emergence test, all species of the test taken together; format: in vivo
# Source text: All such uses, and the biological activity enabling such uses, are embraced by the term “herbicidal” herein. […] Where herbicidal activity was evident but 80% inhibition was not achieved at the highest rate tested (typically 1000 g/ha), an asterisk (*) is shown in the following tables. Herbicidal activity evident in the form of symptoms of phytotoxicity, in the absence of at least 80% inhibition at any rate, is indicated in the tables by “phyto”. A blank cell in the following tables indicates no herbicidal or phytotoxic response at any rate tested.
# The pre-emergence tests were conducted by the following procedure. Topsoil was sieved to pass through a 1.27 cm screen. Fertilizer was added to the topsoil and the mixture was then sterilized by heating. The topsoil mixture was placed in a pot and compacted to a depth of 1.0 to 1.25 cm from the top of the pot. Seeds of each of several monocotyledonous and dicotyledonous annual plant species were placed on top of the soil. Additional soil was subsequently placed over the seeds to level-fill the pot. A known amount of each test compound dissolved or suspended in an appropriate organic solvent was diluted with a 50:50 mix of acetone and water and applied to the surface of the soil. After treatment the plants were placed in a greenhouse with a 30/21° C. day/night temperature regime where they received 0.64 cm of overhead irrigation. All subsequent watering consisted of a light overhead mist and/or subirrigation as needed for germination and growth.
# Pre-emergence herbicidal activity of the compound of Example 5, a racemic mixture of R- and S-enantiomers of N,N′-(1,2-propanediylbis)-3-(trifluoromethyl) benzamide, was compared with that of the individual R- and S-enantiomers, the compounds of Examples 5a and 5b respectively. The procedure was exactly as described above. Rates tested were 1000, 650, 300, 200, 100, 65, 30 and 10 g/ha.
# In a greenhouse pre-emergence test conducted according to the procedure described hereinabove, R—N,N′-(1,2-propanediylbis)-3-(trifluoromethyl)benzamide (the compound of Example 5a) was applied at 200 g/ha and acetochlor was applied at 100 g/ha, both individually and in combination.
# In the same greenhouse pre-emergence test, R-2-fluoro-3-trifluoromethyl-N-[1-methyl-2-(3-trifluoromethyl)phenylcarbonylamino]ethylbenzamide (the compound of Example 13) was applied at 100 g/ha and acetochlor was applied at 100 g/ha, both individually and in combination.
# [18] = system: dicotyledonous species; test: Greenhouse post-emergence test in combination with glyphosate, dicotyledonous species; format: in vivo
# Source text: (§2) A pre-prepared topsoil mixture (described above) was placed in a pot and compacted to a depth of 1.0 to 1.25 cm from the top of the pot. Seeds of each of several monocotyledonous and dicotyledonous annual plant species were placed on top of the soil The seeds were covered with a mixture of 50% topsoil and 50% Rediearth™ in sufficient quantity to level-fill the pots. The pots were then placed on a greenhouse bench and subirrigated as needed until plants growing from the seeds had emerged and reached a suitable growth stage for post-emergence treatment, typically 9 to 14 days after planting.
# (§3) A known amount of each test compound dissolved or suspended in an appropriate organic solvent was diluted with a 50:50 mix of acetone and water and applied to the plants by spraying with a standard spray nozzle in a spray volume of 3,100 l/ha at a spray pressure of […] (30 psig). Control plants were not sprayed.
# (§4) After treatment the plants were placed in a greenhouse with a 30/21° C. day/night temperature regime and were subsequently watered as needed for growth. Approximately 14 days after treatment, the plants were observed and herbicidal efficacy recorded as percent inhibition by comparison with control plants.
# (§5) In a greenhouse post-emergence test conducted according to the procedure described hereinabove, R-2-fluoro-3-trifluoromethyl-N-[1-methyl-2-(3-trifluoromethyl)phenylcarbonylamino]ethylbenzamide (the compound of Example 13) was applied at 0, 64, 125 and 250 g/ha in combination with glyphosate isopropylammonium salt at 1000 g a.e./ha. The glyphosate herbicide alone gave 72% control of dicotyledonous species and 84% control of monocotyledonous species. […] At 250 g/ha, addition of the compound of Example 13 gave 93% control of dicotyledonous species, but reduced control of monocotyledonous species to 73%.
# [19] = system: monocotyledonous species; test: Greenhouse post-emergence test in combination with glyphosate, monocotyledonous species; format: in vivo
# Source text: as §2, §3, §4, §5
# [20] = lowest tested rate giving 80% or greater inhibition, approx. 14 days after planting and treating
# [21] = Example 13 at 64 g/ha in combination with glyphosate isopropylammonium salt 1000 g a.e./ha
# [22] = Example 13 at 125 g/ha in combination with glyphosate isopropylammonium salt 1000 g a.e./ha
# [23] = Example 13 at 250 g/ha in combination with glyphosate isopropylammonium salt 1000 g a.e./ha
structure (smiles),measurement,setting,value
"C[C@H](CNC(=O)c1cccc(C(F)(F)F)c1)NC(=O)c1cccc(C(F)(F)F)c1F [Example 13, R-2-fluoro-3-trifluoromethyl-N-[1-methyl-2-(3-trifluoromethyl)phenylcarbonylamino]ethylbenzamide]","Percent control by pre-emergence application, ABUTH",[1]; applied alone at 100 g/ha,2%
same,Pre-emergence activity (GR80) on ABUTH,[1]; [20],250 g/ha
same,"Percent control by pre-emergence application, SOLNI",[2]; applied alone at 100 g/ha,45%
same,Pre-emergence activity (GR80) on SOLNI,[2]; [20],125 g/ha
same,"Percent control by pre-emergence application, AMARE",[3]; applied alone at 100 g/ha,86%
same,Pre-emergence activity (GR80) on AMARE,[3]; [20],64 g/ha
same,"Percent control by pre-emergence application, DATST",[4]; applied alone at 100 g/ha,12%
same,Pre-emergence activity (GR80) on DATST,[4]; [20],125 g/ha
same,"Percent control by pre-emergence application, CHEAL",[5]; applied alone at 100 g/ha,95%
same,Pre-emergence activity (GR80) on CHEAL,[5]; [20],64 g/ha
same,"Percent control by pre-emergence application, CONAR",[6]; applied alone at 100 g/ha,38%
same,Pre-emergence activity (GR80) on CONAR,[6]; [20],750 g/ha
same,"Percent control by pre-emergence application, POROL",[7]; applied alone at 100 g/ha,100%
same,Pre-emergence activity (GR80) on PORAL,[7]; [20],64 g/ha
same,"Percent control by pre-emergence application, CIRAR",[8]; applied alone at 100 g/ha,25%
same,Pre-emergence activity (GR80) on CIRAR,[8]; [20],64 g/ha
same,Pre-emergence activity (GR80) on ECHCG,[9],500 g/ha
same,"Percent control by pre-emergence application, PANMI",[10]; applied alone at 100 g/ha,5%
same,Pre-emergence activity (GR80) on PANMI,[10]; [20],500 g/ha
same,"Percent control by pre-emergence application, SORHA",[11]; applied alone at 100 g/ha,7%
same,Pre-emergence activity (GR80) on SORHA,[11]; [20],500 g/ha
same,"Percent control by pre-emergence application, SETFA",[12]; applied alone at 100 g/ha,25%
same,Pre-emergence activity (GR80) on SETFA,[12]; [20],125 g/ha
same,"Percent control by pre-emergence application, PANDI",[13]; applied alone at 100 g/ha,40%
same,Pre-emergence activity (GR80) on PANDI,[13]; [20],250 g/ha
same,Pre-emergence activity (GR80) on SORVU,[14],1000 g/ha
same,"Percent control by pre-emergence application, BRAPP",[15]; applied alone at 100 g/ha,4%
same,Pre-emergence activity (GR80) on BRAPP,[15]; [20],500 g/ha
same,"Percent control by pre-emergence application, DIGSA",[16]; applied alone at 100 g/ha,43%
same,Pre-emergence activity (GR80) on DIGSA,[16]; [20],125 g/ha
same,herbicidal activity of the combination compared with expectation,"[17]; Example 13 100 g/ha + acetochlor 100 g/ha, at least on ABUTH, DATST, SOLNI and PANMI",greater than expected herbicidal activity
same,number of the 14 species showing >85% control,[17]; Example 13 100 g/ha in combination with acetochlor 100 g/ha,10
same,number of the 14 species showing >85% control,[17]; Example 13 alone at 100 g/ha,3
same,control of dicotyledonous species,[18]; [21],85%
same,control of dicotyledonous species,[18]; [22],95%
same,control of dicotyledonous species,[18]; [23],93%
same,control of monocotyledonous species,[19]; [21],89%
same,control of monocotyledonous species,[19]; [22],89%
same,control of monocotyledonous species,[19]; [23],73%

# From patent publication US20020052295A1, “Diacyl derivatives of propylene diamine having herbicidal activity” (priority 1999, published 2002)
